# Source: patent EP0752872B1, “NADH OXIDASE AS A TARGET IN DIAGNOSIS AND THERAPY” (Morré, D. James, priority 1994, dated 1995)
# Tests used:
# [1] = tested on: plasma membrane NADH oxidase; test: Spectrophotometric NADH oxidase assay, rat liver plasma membranes (normal cells); type: biochemical; settings: for response of the NADH oxidase activity (in words): in the presence of Mg^2+
# Description: Purification of plasma membranes from rat liver. A 5000 x g pellet from the preparation of Golgi apparatus (Morré (1971) Meth. Enzymol. 22, 130-148) was the starting material. The fluffy layer which contains the Golgi apparatus fraction was mixed, withdrawn and excluded from the plasma membrane preparations. Cold 1 mM NaHCO3 (5 ml) was added to each tube and the friable yellow-brown upper part of the pellet was resuspended with a pen-brush, leaving the reddish tightly packed bottom part of the pellet undisturbed. The resuspended material was homogenized in aliquots of 5 ml each in a 30 ml stainless steel homogenizer (Duragrind) 20 times by hand. The homogenates were combined, diluted with cold 1 mM NaHCO3 (1:1 dilution), and centrifuged at 6000 x g in a HB rotor for 15 min. The supernatant was discarded and the pellet was used for the two-phase separation (Morré & Morré (1989) BioTechniques 7:946-958).
# The two-phase system contained 6.4% (w/w) Dextran T-500 (Pharmacia), 6.4% (w/w) polyethylene glycol) 3350 (Fisher), and 5 mM potassium phosphate buffer (pH 7.2) (Morré & Morré, 1989, supra). The homogenate (1 g) was added to the two-phase system and the weight of the system was brought to 8 g with distilled water. The tubes were inverted vigorously for 40 times in the cold (4°C). The phases were separated by centrifugation at 750 rpm (150 x g) in a Sorvall HB 4 rotor for 5 min. The upper phases were carefully withdrawn with a pasteur pipette, divided in half and transferred into 40 ml plastic centrifuge tubes and diluted with cold 1 mM NaHCO3. The purified plasma membranes were collected by centrifugation at 10,000 x g in a HB rotor for 30 min. Plasma membrane pellets were resuspended in 50 mM Tris-Mes buffer (pH 7.2) and stored at -70°C. Proteins were determined using the bicinchoninic acid (BCA) assay (Smith et al. (1985) Anal. Biochem. […]: 76-85) with bovine serum albumin as standard.
# (§1) Spectrophometric assay of NADH oxidase. NADH oxidase activity was determined as the disappearance of NADH measured at 340 nm in a reaction mixture containing 25 mM Tris-MES buffer (pH 7.2), 1 mM KCN to inhibit the low levels of contaminating mitochondrial oxidase activity, and 150 µM NADH at 37°C with constant stirring. Activity was measured using a Hitachi U3210 spectrophotometer with continuous recording over two intervals of 5 min each. A millimolar extinction coefficient of 6.22 was used to determine specific activity.
# [2] = tested on: protein disulfide-thiol interchange of HeLa plasma membranes; test: Protein disulfide-thiol interchange (restoration of scrambled RNAse activity, yeast RNA hydrolysis method); type: biochemical, human; settings: for protein disulfide-thiol interchange, I: column I; for protein disulfide-thiol interchange, II: column II; for protein disulfide-thiol interchange, III: column III
# Description: Estimation of protein disulfide isomerase- (PDI) like activity. Two methods were employed to determine PDI or PDI-like activity. […] For the assay, 100 µl was transferred to each of 4 tubes. Yeast RNA (100 µl, 0.33 mg/ml, pH 5.0) was added. After 0 min and 10 min, the reaction was stopped by the addition of 100 µl of 25% percholoric acid containing 0.75% uranyl acetate. The tubes were cooled in an ice bath for 5 min and clarified by centrifugation (2 min, microfuge). The 75 µl of the clear supernatant was diluted to 3.0 ml with water. The absorbance was measured at […] against an unincubated blank. […] To prepare the oxidized, denatured RNAse substrate (scrambled RNAse), native RNAse A (Sigma, Type 1-AS from bovine pancreas) (30 µg/ml) was incubated 1 h at 35°C in 50 mM Tris-acetate, pH 8.6, containing 9 M urea and 130 mM DTT. […] Protein concentration was estimated from spectrophotometric measurement at 280 nm using native RNAse A as standard. For preparation of scrambled RNAse, the reduced RNAse was diluted to 0.5 mg/ml with 0.1 M acetic acid. […] The scrambled product was recovered by acidification to pH 4 with glacial acetic acid and elution from Sephadex G-25 in 0.1 M acetic acid. Fractions containing protein were pooled, adjusted to pH 8 and stored at 4°C.
# [3] = tested on: Protein disulfide-thiol interchange activity of HeLa plasma membrane; test: Protein disulfide-thiol interchange (RNAse activity with cCMP as substrate); type: biochemical, human; settings: None 1.6
# Description: Estimation of protein disulfide isomerase- (PDI) like activity. Two methods were employed to determine PDI or PDI-like activity.
# (§2) In the first method, ribonuclease A activity was measured using a spectrophotometric assay based on cCMP as RNAse substrate. Scrambled RNAse (90.363 mg) was incubated together with 0.45 mM cCMP in 50 Mm Tris-MES buffer, pH 6.5, at 30°C in a final volume of 3 ml. […] A variation of this assay was to preincubate scrambled RNAse with transitional endoplasmic reticulum for 20 min in the presence or absence of 1 µM all-trans retinol (using ethanol as control) and in the presence or absence of 1 µM reduced or oxidized glutathione or a mixture of both. After this 20 min of "reactivation" of RNAse, cCMP was added to a final concentration of 0.45 mM to initiate the reaction. The increase of the absorbance at 296 nm was recorded over 25 min and the concentrations of cCMP were determined (E = 0.19 mM^-1cm^-1). Spectrophotometric measurements were with a Hitachi U3210 spectrophotometer with a thermostatic cell compartment maintained at 30°C with continuous stirring.
# Preparation of scrambled RNAse substrate. To prepare the oxidized, denatured RNAse substrate (scrambled RNAse), native RNAse A (Sigma, Type 1-AS from bovine pancreas) (30 µg/ml) was incubated 1 h at 35°C in 50 mM Tris-acetate, pH 8.6, containing 9 M urea and 130 mM DTT.
# Protein concentration was estimated from spectrophotometric measurement at 280 nm using native RNAse A as standard. For preparation of scrambled RNAse, the reduced RNAse was diluted to 0.5 mg/ml with 0.1 M acetic acid. Solid urea was then added to a final concentration of 10 M after which 0.1 M sarcosine hydrochloride was added and the pH adjusted to 8.5 with 1 M Tris. The mixture then was incubated in the dark for 2-3 days during which time the protein was randomly oxidized. The scrambled product was recovered by acidification to pH 4 with glacial acetic acid and elution from Sephadex G-25 in 0.1 M acetic acid. Fractions containing protein were pooled, adjusted to pH 8 and stored at 4°C.
# [4] = tested on: circulating NADH oxidase in the serum; test: NADH oxidase activity of human serum; type: biochemical; settings: normal human serum
# Description: as §1
# native RNAse = target: T1, native RNAse (Bos taurus, UniProt P61823); test: Activity of native RNAse; type: biochemical, bovine; settings: sulfonylurea 1 µM; for activity of native RNAse, pH 6.0: None 0.15; for activity of native RNAse, pH 6.8: None 0.21
# T1 construct: native RNAse A (Sigma, Type 1-AS from bovine pancreas); purchased Sigma Type 1-AS; host or cells: bovine pancreas
# T1 sequence (P61823 27-150): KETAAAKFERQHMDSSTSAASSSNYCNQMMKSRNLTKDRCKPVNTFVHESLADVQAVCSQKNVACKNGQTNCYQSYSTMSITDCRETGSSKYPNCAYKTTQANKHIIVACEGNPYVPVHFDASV
# Description: as §2, with “substrate.” for “substrate. Scrambled RNAse (90.363 mg) was incubated together with 0.45 mM cCMP in 50 Mm Tris-MES buffer, pH 6.5, at 30°C in a final volume of 3 ml.”, “[…] […]” for “A variation of this assay was to preincubate scrambled RNAse with transitional endoplasmic”
# [5] = tested on: NADH oxidase activity of culture medium with HeLa cells; test: NADH oxidase activity of culture medium with HeLa cells; type: biochemical, human
# Description: As is characteristic of many ectoproteins of the mammalian cell surface, an NADH oxidase activity is present in the serum and in HeLa cell culture filtrate. The NADH oxidase activity of culture medium with HeLa cells is proportional to time of incubation and to the amount of medium added. […] The activity is inhibited by 85°C for 20 min, trypsin, N-ethyl maleimide and PCMB, and guanosine nucleotides. These activities have properties similar to those of the plasma membrane-bound form. The circulating form appears to have a lower molecular weight (ca. 32 kD) than the membrane-bound form. The circulating NADH oxidase in the serum of cancer patients is inhibited by adriamycin whereas the circulating NADH oxidase in the serum of healthy individuals is not. Further details from this observation are found in the examples.
# HeLa cells = test: Growth of HeLa cells in culture; type: cell-based, human
# Description: Growth of cells. HeLa cells (ATCC CCL2), were grown in 150 cm^2 flasks in Minimal Essential Medium (Gibco), pH 7.4. at 37°C with 10% bovine calf serum (heat-inactivated), plus 50 mg/l gentamycin sulfate (Sigma). Cells were trypsinized with Sigma IX trypsin for 1 to 2 min, harvested by scraping and taken up in TD-tris buffer (140 mM NaCl, 5 mM KCl, 0.7 mM Na2HPO4 and 25 mM Tris, pH 7.4) to a final cell concentration of 0.1 g wet weight (gww) per ml.
# The number of cells initially plated was subtracted. The results were averages from duplicate experiments.
# [6] = substance alone, thiol addition 1 µM, none 0.11
# [7] = substance alone, thiol addition 1 µM, none 0.047
# [8] = biphasic response, read-out: Km at low NADH concentrations
compound,measurement,setting,value
CC1=CC(=O)[C@@H](O)[C@]2(C)[C@H]3[C@@]4(O)OC[C@]35[C@H]([C@@H](C)[C@H]4O)[C@@H](O)C(=O)O[C@@H]5C[C@@H]12 [(-)-glaucarubolone],IC50,"[1]; liver plasma membranes, Figure 3, read-out: final concentration at which the activity was 50% inhibited",~1 nM
Nc1nc2c(ncn2[C@@H]2O[C@H](COP(=O)(O)OP(=O)(O)O)[C@@H](O)[C@H]2O)c(=O)[nH]1 [GDP],response of the NADH oxidase activity (in words),[1],inhibited
"N[C@@H](CCC(=O)N[C@@H](CS)C(=O)NCC(=O)O)C(=O)O [GSH, reduced glutathione]","protein disulfide-thiol interchange, I",[2]; [6],0.06 0.D./10 min
same,"protein disulfide-thiol interchange, II",[2]; [7],0.06 0.D./10 min
same,"protein disulfide-thiol interchange, III","[2]; substance alone, thiol addition 1 µM, none 0.021",0.041 0.D./10 min
same,Protein disulfide-thiol interchange activity,"[3]; thiol treatment, concentration not given",2.1 nmoles/min/mg protein
Nc1nc2c(ncn2[C@@H]2O[C@H](COP(=O)(O)OP(=O)(O)OP(O)(O)=S)[C@@H](O)[C@H]2O)c(=O)[nH]1 [GTP [γ-S]],response of the NADH oxidase activity (in words),[1],inhibited
Nc1nc2c(ncn2[C@@H]2O[C@H](COP(=O)(O)OP(=O)(O)OP(=O)(O)O)[C@@H](O)[C@H]2O)c(=O)[nH]1 [GTP],inhibition of NADH oxidase activity (in words),[4],inhibited
"Cc1ccc(S(=O)(=O)NC(=O)Nc2ccc(Cl)cc2)cc1 [LY181984, N-(4-methylphenylsulfonyl)-N'-(4-chlorophenyl) urea]","protein disulfide-thiol interchange, I",[2]; [6],0.076 0.D./10 min
same,"protein disulfide-thiol interchange, I",[2]; sulfonylurea with GSH 1 µM,0.056 0.D./10 min
same,"protein disulfide-thiol interchange, I",[2]; sulfonylurea with GSSG 1 µM,0.044 0.D./10 min
same,"protein disulfide-thiol interchange, II",[2]; [7],0.049 0.D./10 min
same,"protein disulfide-thiol interchange, II",[2]; sulfonylurea with GSH 1 µM,0.03 0.D./10 min
same,"protein disulfide-thiol interchange, II",[2]; sulfonylurea with GSSG 1 µM,0.04 0.D./10 min
same,"protein disulfide-thiol interchange, III",[2]; sulfonylurea with GSH 1 µM,0.018 0.D./10 min
same,"protein disulfide-thiol interchange, III",[2]; sulfonylurea with GSSG 1 µM,0.016 0.D./10 min
same,inhibition of protein disulfide isomerase-like activity (in words),[2]; plasma membrane vesicles isolated from HeLa cells,inhibited the activity
same,Protein disulfide-thiol interchange activity,[3]; treatment at 1 µM,1.0 nmoles/min/mg protein
same,"activity of native RNAse, pH 6.0",native RNAse,0.14 µmol/mg/min
same,"activity of native RNAse, pH 6.8",native RNAse,0.21 µmol/mg/min
"Cc1ccc(S(=O)(=O)NC(=O)Nc2ccccc2)cc1 [LY181985, N-(4-methylphenylsulfonyl)-N'-(phenyl)urea]","activity of native RNAse, pH 6.0",native RNAse,0.15 µmol/mg/min
same,"activity of native RNAse, pH 6.8",native RNAse,0.21 µmol/mg/min
CCN1C(=O)C=CC1=O [N-ethyl maleimide],inhibition of NADH oxidase activity (in words),[4],inhibited
same,inhibition of NADH oxidase activity (in words),[5],inhibited
"NC(=O)C1=CN([C@@H]2O[C@H](COP(=O)(O)OP(=O)(O)OC[C@H]3O[C@@H](n4cnc5c(N)ncnc54)[C@H](O)[C@@H]3O)[C@@H](O)[C@H]2O)C=CC1 [NADH, reduced pyridine nucleotide]",Km,[4]; [8],25 µM
same,Km,[5]; [8],15 µM
"O=C(O)c1cc[c]([Hg][Cl])cc1 [PCMB, p-chloromercuribenzoate]",inhibition of NADH oxidase activity (in words),[4],inhibited
same,inhibition of NADH oxidase activity (in words),[5],inhibited
"Nc1ccc(Cl)cc1 [free chloroaniline, chloroaniline]",inhibition of growth of HeLa cells (in words),HeLa cells,inactive
aluminum fluoride,response of the hormone- and growth-stimulated NADH oxidase (in words),[1],weakly inhibitory
mastoparan,response of the hormone- and growth-stimulated NADH oxidase (in words),[1],activated
